{"source": "paper PMC10290954", "about": "(Nature Metabolism, 2023)", "key": {"mouse GIP receptor [1]": {"target": "T1, mouse GIP receptor (Mus musculus, UniProt Q0P543)", "T1 sequence (Q0P543 19-460)": "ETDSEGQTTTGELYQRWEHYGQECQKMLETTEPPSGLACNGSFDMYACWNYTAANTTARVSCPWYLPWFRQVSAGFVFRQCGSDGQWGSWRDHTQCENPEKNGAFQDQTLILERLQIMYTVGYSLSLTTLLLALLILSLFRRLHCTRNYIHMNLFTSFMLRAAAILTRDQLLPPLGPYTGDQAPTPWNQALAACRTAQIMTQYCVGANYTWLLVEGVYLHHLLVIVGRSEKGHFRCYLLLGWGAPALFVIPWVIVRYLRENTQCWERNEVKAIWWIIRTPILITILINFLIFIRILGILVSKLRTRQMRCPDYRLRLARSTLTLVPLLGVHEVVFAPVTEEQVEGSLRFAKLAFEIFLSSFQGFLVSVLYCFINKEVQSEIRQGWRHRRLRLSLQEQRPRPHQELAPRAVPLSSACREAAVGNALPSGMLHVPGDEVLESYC", "test": "cAMP generation (Glosensor), mouse GIPR", "assay_type": "cell-based", "parameters": "expressed in transfected cells; host or cells: low-receptor-density clonal cell lines", "conditions": "mouse GIPR, low-density receptor clones, Glosensor; mean (s.e.m., n); read-out: cAMP Emax", "method": "(§1) Methods for these assays have been previously described. In brief, for GTPγs binding, the potency of ligands to stimulate receptor-dependent elevation of the GTPγS-bound Gαs subunit was determined using membrane preparations from low-receptor-density receptor clonal cell lines. Reactions were incubated for 30 min at room temperature in white, clear-bottom microtiter plates, and per cent of the maximal response was calculated using control wells as a reference. Relative EC50 values were derived by nonlinear regression analysis using the per cent response versus the concentration of ligand and fitted to a four-parameter logistic equation using GraphPad Prism 7 software. For cAMP assays, kinetic cAMP assays were performed in low-density receptor cell clones transfected with the Glosensor 22 F vector (Promega). Cells were equilibrated for 5–20 min and then 20 μl of 10× ligand was added and a luminescence time course was collected. Ligand (10×) was titrated by manual serial dilution in DMSO followed by step-down into assay buffer."}, "Mouse GLP-1R [2]": {"target": "T2, Mouse GLP-1R (Mus musculus, UniProt O35659)", "T2 construct": "expressed in transfected cells; host or cells: HEK293T, transient (Lipofectamine 2000)", "T2 sequence (O35659 22-463)": "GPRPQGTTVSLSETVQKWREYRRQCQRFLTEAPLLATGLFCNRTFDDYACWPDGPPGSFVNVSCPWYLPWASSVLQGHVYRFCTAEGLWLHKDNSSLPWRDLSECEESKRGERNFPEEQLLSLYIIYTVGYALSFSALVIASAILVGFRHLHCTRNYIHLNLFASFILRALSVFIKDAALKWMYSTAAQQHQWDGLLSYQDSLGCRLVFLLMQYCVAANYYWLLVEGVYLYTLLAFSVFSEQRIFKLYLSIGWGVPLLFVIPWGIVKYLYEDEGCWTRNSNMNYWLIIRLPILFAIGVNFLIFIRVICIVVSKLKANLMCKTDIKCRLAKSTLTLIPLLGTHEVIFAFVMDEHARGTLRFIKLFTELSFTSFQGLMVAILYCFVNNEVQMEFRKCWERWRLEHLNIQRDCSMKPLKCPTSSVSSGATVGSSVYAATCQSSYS", "test": "Gs recruitment (ligand-induced BRET), mouse GLP-1R", "assay_type": "cell-based", "conditions": "mean (SEM, n)", "method": "(§2) BRET measurements were taken every 1 min using a PHERAstar FS multi-mode microplate reader. Baseline measurements were taken after an initial 5 min incubation with coelenterazine-h or NanoGlo-containing HBSS, after which cells were treated with either a vehicle (PBS) or the respective ligands. Ligand-specific ratiometric BRET signals were normalized to the vehicle, producing the ‘ligand-induced BRET ratio’[46], followed by additional normalization to well-specific baseline readings. Ligand-induced measurements on the temporal scale are represented as the subsequent measurement after time point zero. Positive or negative incremental area under the curves (+iAUC, –iAUC) were calculated where noted. Concentration–response curves were generated by three-parameter logistic fitting in Prism 9.0."}, "[3]": {"conditions": "in vivo; cited from earlier work", "text": "Tirzepatide is an agonist for both incretin receptors, engineered from the human GIP (hGIP) peptide sequence. It has an average half-life of approximately 5 days, enabling once-weekly dosing."}, "Mouse GLP-1R [4]": {"target": "T2, Mouse GLP-1R", "test": "cAMP generation (Glosensor), mouse GLP-1R", "assay_type": "cell-based", "method": "as §1"}, "mouse GIP receptor [5]": {"target": "T1, mouse GIP receptor", "test": "Gs recruitment (ligand-induced BRET), mouse GIPR", "assay_type": "cell-based", "parameters": "expressed in transfected cells", "conditions": "HEK-293T, read-out: Gs recruitment Emax", "method": "as §2"}, "human islets": {"tested_on": "human islets", "test": "Human islets, glucagon secretion with tirzepatide at 2.7 or 10 mM glucose ± alanine (Fig. 3d)", "assay_type": "cell-based", "method": "Human islets were obtained from both the Alberta Diabetes Institute and the Integrated Islet Distribution Program. All islets were obtained from consenting donors. Details for the general perifusion protocol have been previously described[21] and are similar to the mouse perifusion protocol. […] Each set of human islets consisted of n = 3 for each condition. These were averaged to generate a single data point (Fig. 2c). Insulin values were measured with a Lumit insulin immunoassay (Promega) using an EnVision plate reader (PerkinElmer). For the glucagon secretion experiments (Fig. 3), the average glucagon values were calculated during control (minutes 35–45) and stimulated (minutes 55–65) conditions. All peptides were used at 30 nM concentrations based on previous work[16]. Amino acids were used at concentrations of 3 mM based on previous work[11]. Glucagon was measured with a Lumit Glucagon Immunoassay Kit (cat. no. CS3037A02; Promega) using an EnVision plate reader (PerkinElmer). Somatostatin was measured with an ELISA assay (cat. no. FEK-060-14; Phoenix Pharmaceuticals). All data are expressed as the measured concentration relative to both flow rate and islet number (insulin, ng ml^–1 × (1/200 µl ml^–1) × (1/75 islets); glucagon, pM × (1/200 µl ml^–1) × (1/75 islets); somatostatin, pg ml^–1 × (1/200 µl ml^–1) × (1/75 islets))[49]. […]"}, "[6]": {"target": "mouse GLP-1 receptor (mouse) (UniProt O35659)", "test": "other; competition with radioligand, header printed as [125I]GIP(1-42)OH"}, "mouse GIP receptor [7]": {"target": "T1, mouse GIP receptor", "test": "[35S]GTPγS binding, mouse GIPR", "assay_type": "biochemical", "parameters": "expressed in transfected cells; host or cells: low-receptor-density clonal cell lines", "method": "as §1, with “collected.” for “collected. Ligand (10×) was titrated by manual serial dilution in DMSO followed by step-down into assay buffer.”"}}, "note": "Several values for one entry are separate records, joined by “and”; a condition that tells them apart may be missing. Identical values can stand only once.", "data": [{"compound": "CC[C@H](C)[C@H](NC(=O)[C@H](CC(C)C)NC(=O)[C@H](Cc1c[nH]c2ccccc12)NC(=O)[C@H](CCC(N)=O)NC(=O)[C@@H](NC(=O)[C@H](Cc1ccccc1)NC(=O)[C@H](C)NC(=O)[C@H](CCCCNC(=O)COCCOCCNC(=O)COCCOCCNC(=O)CC[C@H](NC(=O)CCCCCCCCCCCCCCCCCCC(=O)O)C(=O)O)NC(=O)[C@H](CCC(N)=O)NC(=O)[C@H](C)NC(=O)[C@@H](NC(=O)[C@H](CCCCN)NC(=O)[C@H](CC(=O)O)NC(=O)[C@H](CC(C)C)NC(=O)C(C)(C)NC(=O)[C@@H](NC(=O)[C@H](CO)NC(=O)[C@H](Cc1ccc(O)cc1)NC(=O)[C@H](CC(=O)O)NC(=O)[C@H](CO)NC(=O)[C@@H](NC(=O)[C@H](Cc1ccccc1)NC(=O)[C@@H](NC(=O)CNC(=O)[C@H](CCC(=O)O)NC(=O)C(C)(C)NC(=O)[C@@H](N)Cc1ccc(O)cc1)[C@@H](C)O)[C@@H](C)O)[C@@H](C)CC)[C@@H](C)CC)C(C)C)C(=O)N[C@@H](C)C(=O)NCC(=O)NCC(=O)N1CCC[C@H]1C(=O)N[C@@H](CO)C(=O)N[C@@H](CO)C(=O)NCC(=O)N[C@@H](C)C(=O)N1CCC[C@H]1C(=O)N1CCC[C@H]1C(=O)N1CCC[C@H]1C(=O)N[C@@H](CO)C(N)=O", "note": "[TZP, tirzepatide]", "values": [{"measurement": "Emax", "setting": "mouse GIP receptor [1]", "value": 103, "unit": "%"}, {"measurement": "Emax", "setting": "Mouse GLP-1R [2]", "value": 35.6, "unit": "%"}, {"measurement": "Half-life", "setting": "[3]", "value": "approximately 5 days"}, {"measurement": "Emax", "setting": "Mouse GLP-1R [4]; HEK293, mouse GLP-1R HEK-293 cells, n = 6, read-out: Emax, mean of column (T-test Emax, cAMP)", "value": 95, "unit": "%"}, {"measurement": "Emax", "setting": "Mouse GLP-1R [4]; HEK293, read-out: Arthmetic Mean Emax", "value": 95, "unit": "%"}, {"measurement": "Emax", "setting": "Mouse GLP-1R [4]; Mouse GLP-1R, mean (n), read-out: cAMP EMAX", "value": 84, "unit": "%"}, {"measurement": "Emax", "setting": "mouse GIP receptor [5]; mouse GIPR, HEK293T BRET, mean (s.e.m., n)", "value": 72.6, "unit": "%"}]}, {"compound": "C[C@H](N)C(=O)O", "note": "[Alanine]", "values": [{"measurement": "iAUC values (glucagon secretion)", "setting": "human islets", "value": "42.82 and 37.07 and 49.41 and 40.38 and 34.9 and 39.11"}]}, {"compound": "TZP", "values": [{"measurement": "Ki", "setting": "[6]", "value": 387, "unit": "pM"}]}, {"compound": "CC[C@H](C)[C@H](NC(=O)[C@H](CO)NC(=O)[C@H](Cc1ccc(O)cc1)NC(=O)[C@H](CC(=O)O)NC(=O)[C@H](CO)NC(=O)[C@@H](NC(=O)[C@H](Cc1ccccc1)NC(=O)[C@@H](NC(=O)CNC(=O)[C@H](CCC(=O)O)NC(=O)[C@H](C)NC(=O)[C@@H](N)Cc1ccc(O)cc1)[C@@H](C)O)[C@@H](C)CC)C(=O)N[C@@H](C)C(=O)N[C@@H](CCSC)C(=O)N[C@@H](CC(=O)O)C(=O)N[C@@H](CCCCN)C(=O)N[C@H](C(=O)N[C@@H](CCCNC(=N)N)C(=O)N[C@@H](CCC(N)=O)C(=O)N[C@@H](CCC(N)=O)C(=O)N[C@@H](CC(=O)O)C(=O)N[C@@H](Cc1ccccc1)C(=O)N[C@H](C(=O)N[C@@H](CC(N)=O)C(=O)N[C@@H](Cc1c[nH]c2ccccc12)C(=O)N[C@@H](CC(C)C)C(=O)N[C@@H](CC(C)C)C(=O)N[C@@H](C)C(=O)N[C@@H](CCC(N)=O)C(=O)N[C@@H](CCCNC(=N)N)C(=O)NCC(=O)N[C@@H](CCCCN)C(=O)N[C@@H](CCCCN)C(=O)N[C@@H](CO)C(=O)N[C@@H](CC(=O)O)C(=O)N[C@@H](Cc1c[nH]c2ccccc12)C(=O)N[C@@H](CCCCN)C(=O)N[C@@H](Cc1c[nH]cn1)C(=O)N[C@@H](CC(N)=O)C(=O)N[C@H](C(=O)N[C@H](C(=O)N[C@@H](CCC(N)=O)C(N)=O)[C@@H](C)O)[C@@H](C)CC)C(C)C)[C@@H](C)CC", "note": "[mGIP]", "values": [{"measurement": "Emax", "setting": "mouse GIP receptor [1]", "value": 103, "unit": "%"}, {"measurement": "Emax", "setting": "mouse GIP receptor [5]", "value": 100, "unit": "%"}, {"measurement": "Emax", "setting": "mouse GIP receptor [7]; mGIPR GTPgS, run of 2019-06-25", "value": 98.5, "unit": "%"}, {"measurement": "Emax", "setting": "mouse GIP receptor [7]; mGIPR GTPgS, run of 2022-05-11", "value": 98.7, "unit": "%"}, {"measurement": "Emax", "setting": "mouse GIP receptor [7]; mGIPR GTPgS, run of 2022-05-12", "value": 98, "unit": "%"}, {"measurement": "Emax", "setting": "mouse GIP receptor [7]; mGIPR GTPgS, run of 2022-06-16", "value": 101, "unit": "%"}, {"measurement": "Emax", "setting": "mouse GIP receptor [7]; mGIPR GTPgS, run of 2022-06-21", "value": 102, "unit": "%"}, {"measurement": "Emax", "setting": "mouse GIP receptor [7]; read-out: [35S]GTPγS binding Emax, mouse GIPR, membranes, 30 min room temperature, mean (s.e.m., n)", "value": 98.9, "unit": "%"}]}]}
